Data as given in US5654411A, “Process for preparing 4-deoxyerythromycin derivatives” (Abbott Laboratories, priority 1995, dated 1997).
≈ marks a conversion by molar mass, not a printed value.

What was measured:
[1] = test system: smooth muscle strips isolated from rabbit small intestine; experiment: Induction of in vitro rabbit duodenal smooth muscle contraction; conditions: for EC50: Oryctolagus cuniculus, rabbit duodenum longitudinal muscle, 37° C., pH 7.5, read-out: pED50 (negative logarithm of the concentration producing half of the maximal contraction) (converted); for Relative Potency: relative to erythromycin A = 1.0
Method: The compounds of the present invention were tested in vitro for their ability to induce contraction of smooth muscle strips isolated from rabbit small intestine using the following procedure:
Rabbits were sacrificed and 15 cm of duodenum was rapidly removed and placed in ice-cold modified Ringers solution (120 mM sodium chloride, 25 mM sodium bicarbonate, 4.7 mM potassium chloride, 1.25 mM calcium chloride, 1.20 mM magnesium sulfate and 5.6 mM glucose). The longitudinal muscle layer was separated from the circular muscle by blunt dissection and cut into strips of 10×20 mm. Double-folded strips were vertically suspended between two hooks in 10 mL tissue baths with a mechanical preload of 1 g. The upper hook was connected to an […] force transducer, and its displacement was recorded on a Grass polygraph. The tissue baths contained modified Ringers solution at 37° C. and were continuously gassed with 95% oxygen/5% carbon dioxide in order to maintain the pH at 7.5.
After a stabilization period of at least 60 minutes, a contractility dose-response series was performed by adding increasing final concentrations of methacholine (10^-7 M, 10^-6 M and 10^-5 M) in volumes of 100 μL. The bath solutions were replaced at least three times between doses.
After the methacholine dose-response series was completed, a test compound dose response curve was initiated by the same procedure used for the methacholine dose-response series, with at least five concentrations of test compound within the range of 10^-10 M to 10^-4 M. The tissues were washed repeatedly between doses, and the studies were completed by recording the contractile response to 10^-5 M methacholine to ascertain integrity of the muscle preparation. Contractile responses were expressed as percent of maximal contraction. The concentration of test compound which produces half of the maximal contraction (ED50 value) and the negative logarithm of the ED50 value (PED50) were estimated from the dose-response curves.

[2] = test system: Staphylococcus aureus ATCC 6538P; experiment: Antibacterial activity (MIC), agar dilution method; type: cell-based; conditions: unit assumed
Method: (§1) Compounds of the invention were next tested for antibacterial potency, such activity being regarded as an undesirable side effect if prokinetic therapy. Assays were conducted using methodology well-known in the art (the agar dilution method).

[3] = test system: Streptococcus pyogenes 930 CONST; experiment: Antibacterial activity (MIC), agar dilution method; type: cell-based; conditions: unit assumed
Method: as §1

[4] = test system: Staphylococcus aureus 642A; experiment: Antibacterial activity (MIC), agar dilution method; type: cell-based; conditions: unit assumed
Method: as §1

[5] = test system: Micrococcus luteus ATCC 9341; experiment: Antibacterial activity (MIC), agar dilution method; type: cell-based; conditions: unit assumed
Method: as §1

[6] = test system: Pseudomonas cepacia 2961; experiment: Antibacterial activity (MIC), agar dilution method; type: cell-based; conditions: unit assumed
Method: as §1

[7] = test system: Streptococcus pyogenes EES61; experiment: Antibacterial activity (MIC), agar dilution method; type: cell-based; conditions: unit assumed
Method: as §1

[8] = test system: Enterobacter aerogenes ATCC 13048; experiment: Antibacterial activity (MIC), agar dilution method; type: cell-based; conditions: unit assumed
Method: as §1

[9] = test system: Staphylococcus aureus CMX 553; experiment: Antibacterial activity (MIC), agar dilution method; type: cell-based; conditions: unit assumed
Method: as §1

[10] = test system: Escherichia coli JUHL; experiment: Antibacterial activity (MIC), agar dilution method; type: cell-based; conditions: unit assumed
Method: as §1

[11] = test system: Staphylococcus aureus 1775; experiment: Antibacterial activity (MIC), agar dilution method; type: cell-based; conditions: unit assumed
Method: as §1

[12] = test system: Pseudomonas aeruginosa K799/WT; experiment: Antibacterial activity (MIC), agar dilution method; type: cell-based; conditions: unit assumed
Method: as §1

[13] = test system: Staphylococcus aureus A5177; experiment: Antibacterial activity (MIC), agar dilution method; type: cell-based; conditions: unit assumed
Method: as §1

[14] = test system: Acinetobacter calcoaceticus CMX 669; experiment: Antibacterial activity (MIC), agar dilution method; type: cell-based; conditions: unit assumed
Method: as §1

[15] = test system: Pseudomonas aeruginosa A5007; experiment: Antibacterial activity (MIC), agar dilution method; type: cell-based; conditions: unit assumed
Method: as §1

[16] = test system: Pseudomonas aeruginosa DPHD-2862; experiment: Antibacterial activity (MIC), agar dilution method; type: cell-based; conditions: unit assumed
Method: as §1

[17] = test system: Streptococcus agalactiae CMX 508; experiment: Antibacterial activity (MIC), agar dilution method; type: cell-based; conditions: unit assumed
Method: as §1

[18] = test system: Klebsiella pneumoniae ATCC 8045; experiment: Antibacterial activity (MIC), agar dilution method; type: cell-based; conditions: unit assumed
Method: as §1

[19] = test system: Escherichia coli H560; experiment: Antibacterial activity (MIC), agar dilution method; type: cell-based; conditions: unit assumed
Method: as §1

[20] = test system: Staphylococcus aureus NCTC 10649; experiment: Antibacterial activity (MIC), agar dilution method; type: cell-based; conditions: unit assumed
Method: as §1

[21] = test system: Streptococcus bovis A5169; experiment: Antibacterial activity (MIC), agar dilution method; type: cell-based; conditions: unit assumed
Method: as §1

[22] = test system: Micrococcus luteus ATCC 4698; experiment: Antibacterial activity (MIC), agar dilution method; type: cell-based; conditions: unit assumed
Method: as §1

[23] = test system: Escherichia coli DC-2; experiment: Antibacterial activity (MIC), agar dilution method; type: cell-based; conditions: unit assumed
Method: as §1

[24] = test system: Pseudomonas aeruginosa DPHD-5263; experiment: Antibacterial activity (MIC), agar dilution method; type: cell-based; conditions: unit assumed
Method: as §1

[25] = test system: Escherichia coli KNK 437; experiment: Antibacterial activity (MIC), agar dilution method; type: cell-based; conditions: unit assumed
Method: as §1

[26] = test system: Providencia stuartii CMX 640; experiment: Antibacterial activity (MIC), agar dilution method; type: cell-based; conditions: unit assumed
Method: as §1

[27] = test system: Staphylococcus aureus A-5278; experiment: Antibacterial activity (MIC), agar dilution method; type: cell-based; conditions: unit assumed
Method: as §1

[28] = test system: Staphylococcus epidermidis 3519; experiment: Antibacterial activity (MIC), agar dilution method; type: cell-based; conditions: unit assumed
Method: as §1

[29] = test system: Pseudomonas aeruginosa BMH10; experiment: Antibacterial activity (MIC), agar dilution method; type: cell-based; conditions: unit assumed
Method: as §1

[30] = test system: Enterococcus faecium ATCC 8043; experiment: Antibacterial activity (MIC), agar dilution method; type: cell-based; conditions: unit assumed
Method: as §1

[31] = test system: Pseudomonas aeruginosa K799/61; experiment: Antibacterial activity (MIC), agar dilution method; type: cell-based; conditions: unit assumed
Method: as §1

[32] = test system: Escherichia coli SS; experiment: Antibacterial activity (MIC), agar dilution method; type: cell-based; conditions: unit assumed
Method: as §1

[33] = test system: Streptococcus pyogenes 2548 INDUC; experiment: Antibacterial activity (MIC), agar dilution method; type: cell-based; conditions: unit assumed
Method: as §1

Compound	MIC [2]	MIC [3]	MIC [4]	MIC [5]	MIC [6]	MIC [7]	MIC [8]	MIC [9]	MIC [10]	MIC [11]	MIC [12]	MIC [13]	MIC [14]	MIC [15]	MIC [16]	MIC [17]	MIC [18]	MIC [19]	MIC [20]	MIC [21]	also measured
CC[C@H]1OC(=O)[C@H](C)[C@@H](O[C@H]2C[C@@](C)(OC)C[C@H](C)O2)[C@H](C)[C@@H](O[C@@H]2O[C@H](C)C[C@H](N(C)CC)[C@H]2O)[C@@]2(C)C[C@H](C)C(O2)[C@H](C)[C@@H](O)[C@]1(C)O [Example 11, 9-deoxo-3'-N-desmethyl-4",6-dideoxy-8-epi-3'-N-ethyl-6,9-epoxyerythromycin A]	> 100 µg/mL	100 µg/mL (≈ 140 µM)	> 100 µg/mL	25 µg/mL (≈ 34.9 µM)	> 100 µg/mL	25 µg/mL (≈ 34.9 µM)	> 100 µg/mL	> 100 µg/mL	> 100 µg/mL	> 100 µg/mL	> 100 µg/mL	100 µg/mL (≈ 140 µM)	> 100 µg/mL	> 100 µg/mL	> 100 µg/mL	6.2 µg/mL (≈ 8.66 µM)	> 100 µg/mL	> 100 µg/mL	100 µg/mL (≈ 140 µM)	50 µg/mL (≈ 69.8 µM)	EC50 [1]: 2.88 nM; Relative Potency [1]: 490; MIC [22]: 25 µg/mL (≈ 34.9 µM); MIC [23]: > 100 µg/mL; MIC [24]: > 100 µg/mL; MIC [25]: > 100 µg/mL; MIC [26]: > 100 µg/mL; MIC [27]: > 100 µg/mL; MIC [28]: 100 µg/mL (≈ 140 µM); MIC [29]: > 100 µg/mL; MIC [30]: 50 µg/mL (≈ 69.8 µM); MIC [31]: > 100 µg/mL; MIC [32]: > 100 µg/mL; MIC [33]: 50 µg/mL (≈ 69.8 µM)
CC[C@H]1OC(=O)[C@H](C)[C@@H](O[C@H]2C[C@@](C)(OC)C[C@H](C)O2)[C@H](C)[C@@H](O[C@@H]2O[C@H](C)C[C@H](N(C)CC)[C@H]2O)[C@@]2(C)CC(C)=C(O2)[C@H](C)[C@@H](O)[C@H]1C [Example 7, 8,9-anhydro-4"-deoxy-3'-N-desmethyl-3'-N-ethylerythromycin B-6,9-hemiketal]	100 µg/mL (≈ 143 µM)	> 100 µg/mL	> 100 µg/mL	12.5 µg/mL (≈ 17.9 µM)	> 100 µg/mL	50 µg/mL (≈ 71.6 µM)	> 100 µg/mL	> 100 µg/mL	> 100 µg/mL	> 100 µg/mL	> 100 µg/mL	100 µg/mL (≈ 143 µM)	> 100 µg/mL	> 100 µg/mL	> 100 µg/mL	50 µg/mL (≈ 71.6 µM)	> 100 µg/mL	> 100 µg/mL	100 µg/mL (≈ 143 µM)	50 µg/mL (≈ 71.6 µM)	Endpoint (pED50) could not be obtained, potency in words ([1]; footnote a of Table 2): extremely high potency; Relative Potency [1]: > 8000; MIC [23]: > 100 µg/mL; MIC [24]: > 100 µg/mL; MIC [25]: > 100 µg/mL; MIC [26]: > 100 µg/mL; MIC [27]: > 100 µg/mL; MIC [28]: 100 µg/mL (≈ 143 µM); MIC [29]: > 100 µg/mL; MIC [30]: 50 µg/mL (≈ 71.6 µM); MIC [31]: > 100 µg/mL; MIC [32]: 100 µg/mL (≈ 143 µM); MIC [33]: 50 µg/mL (≈ 71.6 µM)
CC[C@H]1OC(=O)[C@H](C)[C@@H](O[C@H]2C[C@@](C)(OC)[C@@H](O)[C@H](C)O2)[C@H](C)[C@@H](O[C@@H]2O[C@H](C)C[C@H](N(C)C)[C@H]2O)[C@](C)(O)C[C@@H](C)C(=O)[C@H](C)[C@@H](O)[C@]1(C)O [Erythromycin]	0.1 µg/mL (≈ 0.136 µM)	> 100 µg/mL	0.2 µg/mL (≈ 0.273 µM)	0.02 µg/mL (≈ 0.0273 µM)	> 100 µg/mL	0.05 µg/mL (≈ 0.0681 µM)	100 µg/mL (≈ 136 µM)	0.2 µg/mL (≈ 0.273 µM)	50 µg/mL (≈ 68.1 µM)	> 100 µg/mL	100 µg/mL (≈ 136 µM)	1.56 µg/mL (≈ 2.13 µM)	6.2 µg/mL (≈ 8.45 µM)	> 100 µg/mL	> 100 µg/mL	0.05 µg/mL (≈ 0.0681 µM)	50 µg/mL (≈ 68.1 µM)	25 µg/mL (≈ 34.1 µM)	0.2 µg/mL (≈ 0.273 µM)	0.02 µg/mL (≈ 0.0273 µM)	MIC [22]: 0.1 µg/mL (≈ 0.136 µM); MIC [23]: 50 µg/mL (≈ 68.1 µM); MIC [24]: 100 µg/mL (≈ 136 µM); MIC [25]: 50 µg/mL (≈ 68.1 µM); MIC [26]: > 100 µg/mL; MIC [27]: > 100 µg/mL; MIC [28]: 0.2 µg/mL (≈ 0.273 µM); MIC [29]: 50 µg/mL (≈ 68.1 µM); MIC [30]: 0.05 µg/mL (≈ 0.0681 µM); MIC [31]: 3.1 µg/mL (≈ 4.22 µM); MIC [32]: 0.2 µg/mL (≈ 0.273 µM); MIC [33]: 6.2 µg/mL (≈ 8.45 µM)
CC[C@H]1OC(=O)[C@H](C)[C@@H](O[C@H]2C[C@@](C)(OC)C[C@H](C)O2)[C@H](C)[C@@H](O[C@@H]2O[C@H](C)C[C@H](N(C)CC)[C@H]2O)[C@@]2(C)C[C@@H](C)C(O2)[C@H](C)[C@@H](O)[C@]1(C)O [Example 15, 9-deoxo-3'-N-desmethyl-4",6-dideoxy-6,9-epoxy-3'-N-ethylerythromycin A]	100 µg/mL (≈ 140 µM)	> 100 µg/mL	> 100 µg/mL	25 µg/mL (≈ 34.9 µM)	> 100 µg/mL	25 µg/mL (≈ 34.9 µM)	> 100 µg/mL	> 100 µg/mL	> 100 µg/mL	> 100 µg/mL	> 100 µg/mL	> 100 µg/mL	> 100 µg/mL	> 100 µg/mL	> 100 µg/mL	6.2 µg/mL (≈ 8.66 µM)	> 100 µg/mL	> 100 µg/mL	> 100 µg/mL	6.2 µg/mL (≈ 8.66 µM)	EC50 [1]: 23.4 nM; Relative Potency [1]: 60; MIC [22]: 25 µg/mL (≈ 34.9 µM); MIC [23]: > 100 µg/mL; MIC [24]: > 100 µg/mL; MIC [25]: > 100 µg/mL; MIC [26]: > 100 µg/mL; MIC [27]: > 100 µg/mL; MIC [28]: 100 µg/mL (≈ 140 µM); MIC [29]: > 100 µg/mL; MIC [30]: 50 µg/mL (≈ 69.8 µM); MIC [31]: > 100 µg/mL; MIC [32]: 100 µg/mL (≈ 140 µM); MIC [33]: 50 µg/mL (≈ 69.8 µM)
